A word on the Kd: it is the free concentration of one partner at which half of the binding sites on the other are occupied at equilibrium, for simple one-to-one binding.

Data on one compound can be found in patent US20240252693A1, “FOLATE RECEPTOR-TARGETED RADIOTHERAPEUTIC AGENTS AND THEIR USE” (Novartis AG, priority 2021, published 2024).

One data set concerns MDA-MB-231 tumors. The data set is described as follows: In vivo anti-tumor activity in mice bearing MDA-MB-231 tumors. Particulars: 300 nmol/3.7 GBq/kg, female nu nu mice, n=5. On the procedure:
(§1) Four- to eight-week-old female nu nu mice or NSG mice (Harlan Sprague-Dawley, Inc.) were maintained on a standard 12-h light-dark cycle and fed ad libitum with folate deficient purified rodent diet (TestDiet #AIN-93G). FR-positive (human breast adenocarcinoma) or IGROV (human ovarian adenocarcinoma) or KB (human cervical adenocarcinoma) tumor cells were inoculated subcutaneously at the right flank of each mouse. Mice were dosed with [^177Lu]-Compound 34, [^177Lu]-Compound 37, or [^225Ac]-Compound 5 through the lateral tail vein under sterile conditions in a volume of 100 μL/10 g of phosphate-buffered saline (PBS). Growth of each s.c. tumor was followed by measuring the tumor two times per week. Tumors were measured in two perpendicular directions using Vernier calipers, and their volumes were calculated as 0.5×L×W^2, where L=measurement of longest axis in mm and W=measurement of axis perpendicular to L in mm. A stable disease (SD) was defined as volume reduction of <50% and increase of <50% in two weeks. A partial response (PR) was defined as volume regression >50% but with measurable tumor (>2 mm^3) remaining at all times. Complete response (CR) was defined as a disappearance of measurable tumor mass (<2 mm^3) at some point within the study. Cures were defined as CRs without tumor regrowth within the study time frame. As a general measure of gross toxicity, changes in body weights were determined on the same schedule as tumor volume measurements.

In data set [1] the target is T1, folate receptors on FR-positive KB cells (Homo sapiens, UniProt P15328).
T1 construct: endogenous in cells; host or cells: KB cells
T1 sequence (P15328 25-234): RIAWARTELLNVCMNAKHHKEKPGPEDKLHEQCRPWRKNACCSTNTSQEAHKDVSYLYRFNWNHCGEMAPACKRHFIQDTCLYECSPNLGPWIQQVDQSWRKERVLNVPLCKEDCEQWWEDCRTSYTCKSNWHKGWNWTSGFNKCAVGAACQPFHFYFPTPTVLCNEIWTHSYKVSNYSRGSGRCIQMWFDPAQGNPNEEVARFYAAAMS
Description: Binding affinity assay: direct binding of 177Lu-labelled compounds to FR-positive KB cells. The following applies: 177Lu-labelled compound, 1 h 37 °C. The procedure:
FR-positive KB cells and FR-negative A549 cells were seeded in 24-well Falcon plates and allowed to form adherent monolayers (>90% confluent) overnight in FFRPMI/HIFCS. Spent incubation medium was replaced with FFRPMI supplemented with 10% HIFCS containing increasing concentrations (0.78 to 100 nmol/L) of [^177Lu]-Compound 34, [^177Lu]-Compound 37, or [^177Lu]-(non-targeted control) in the absence and presence of 10 μM FA. Cells were incubated for 1 h at 37° C. and then rinsed three times with 0.5 mL PBS. Five hundred microliters of 1% NaOH in PBS were added to each well; after 5 min, cell lysates were collected, transferred to individual tubes, and then counted for radioactivity on a gamma counter. Counts per minute (CPM) values were measured in all samples and plotted against concentration of [^177Lu]-Compound 34, [1^77Lu]-Compound 37, or [^177Lu]-(non-targeted control) using GraphPad Prism 8 program. Dissociation constants (Kd) was calculated using a GraphPad's nonlinear regression one site binding method.

Data set [2] can be described thus: Body weight as measure of gross toxicity in the MDA-MB-231 anti-tumor study. Type of data set: in vivo. Particulars: 300 nmol/3.7 GBq/kg, female nu nu mice bearing MDA-MB-231 tumors.
From the text: as §1, with “Mice were dosed with [^177Lu]-Compound 34, [^177Lu]-Compound 37, or [^225Ac]-Compound 5 through the lateral tail vein under sterile conditions in a volume of 100 μL/10 g of phosphate-buffered saline (PBS).” left out

Data set [3] can be described thus: Stability of [177Lu]-Compound 34 solution, radiochemical purity by radio-HPLC. In kind it is physicochemical. The procedure:
Preparation of [^177Lu]-Compound 34: Compound 34 solution (250 μL, 2 mM) was added to a vial. Gentisic acid/acetate buffer pH 5.5 (800 μL) and ^177LuCl3 solution (170 μL, 184 mCi) were added to the vial. The vial was placed in a shielded heating block and heated at 95° C. for 15 min. After cooling to room temperature, 7 mL of DTPA/sodium ascorbate solution pH 7.4 was added to the labeling mixture. The final solution contains 184 mCi of ^177Lu, 0.6 mg of Compound 34, 8 mg of gentisic acid, 1.5 mg of DTPA, 350 mg of sodium ascorbate.
[^177Lu]-Compound 34 solution was stored at room temperature and in a refrigerator. The radiochemical purities were monitored using radio-HPLC. [^177Lu]-Compound 34 was stable up to 6 days.

SMILES strings stand for the structures.

With `Nc1nc2ncc(CNc3ccc(C(=O)N[C@@H](CCCCNC(=O)C[C@H](NC(=O)[C@H](Cc4ccc5ccccc5c4)NC(=O)CNC(=O)CN4CCN(CC(=O)O)CCN(CC(=O)O)CCN(CC(=O)O)CC4)C(=O)O)C(=O)O)cc3)nc2c(=O)[nH]1` [[^177Lu]-Compound 34, metal not drawn], the “partial responses (PRs)” value in the data set with MDA-MB-231 tumors is given as “five”. Also, the Kd in data set [1] is 7.21 nM. Further, the “average weight of mice (tolerability)” value in data set [2] is on record as “did not lose any significant weight”. Also, the “Radiochemical purity (%)” value in data set [3] (0° C., 3 days) worked out at 97.19%; in data set [3] (0° C., 6 days) it was 96.58%; in data set [3] (0° C., initial), 97.14%; in data set [3] (Room temperature (24° C.), 3 days), 96.77%; in data set [3] (Room temperature (24° C.), 6 days), 95.89%; in data set [3] (Room temperature (24° C.), initial), 97.14%. Also, the “time over which the solution was stable” value in data set [3] (stored at room temperature and in a refrigerator, radio-HPLC) is listed as “up to 6 days”.
